“And” between values parts separate entries of the source, which are not always exact repeats. Identical values can stand only once.
Assays:
Type in all cases: in vivo, mouse
[1] = system: OVCAR3 xenografts; experiment: Cell line-derived xenograft, tumour growth; conditions: Gem 20mg/kg QWx4 IP
Protocol: (§1) HCC1569, OVCAR3 and SUM149PT cells were implanted at 5 × 10^6 cells per mouse into the right flanks of female CB17-SCID, SCID-beige and NOD-SCID mice respectively (5–7 weeks old; Charles River), in 1:1 Matrigel:medium (Matrigel Corning, cat. no. CB35248).
(§2) Gemcitabine was administered once weekly intraperitoneally in saline. Animals were monitored for tumour volume, clinical signs and body weight three times per week. Tumour volume was measured using a digital calliper and calculated using the formula 0.52 × L × W^2, where L is length and W is width. Response to treatment was evaluated for tumour growth inhibition (% TGI). […] TV is tumour volume and subscripts indicate treatment group and time of sampling. According to NIACC and IACUC approved animal protocols, mice were euthanized as soon as their tumour volume exceeded 2,000 mm^3. Change in body weight (BW) was calculated using the formula: %BW change = (BWlast − BWday0/BWday0) × 100. BW change was calculated based on individual body weight changes relative to day 0. Statistical significance relative to vehicle control or other test groups was established by one-way ANOVA followed by Fisher’s least significant difference test for multiple groups and unpaired t-test for two group comparisons (GraphPad Prism v9.0). Investigators were not blinded during data collection and analysis.

[2] = system: HCC1569 xenografts; experiment: Cell line-derived xenograft, tumour growth; conditions: Gem 20mg/kg QWx4 IP
Protocol: as §1, §2

[3] = Body weight change of tumour-bearing mice; conditions: Gem 20mg/kg QWx4 IP, individual mice
Protocol: as §2

SMILES: Nc1ccn([C@@H]2O[C@H](CO)[C@@H](O)C2(F)F)c(=O)n1 [Gem]
- Tumor growth of OVCAR3 xenografts ([1]; time 0, individual animals): 127.251 and 90.8608 and 112.694 and 96.336 and 125.032 and 141.631 and 118.987
- Tumor growth of OVCAR3 xenografts ([1]; time 3, individual animals): 203.437 and 160.884 and 245.447 and 183.946 and 210.941 and 179.854 and 163.096
- Tumor growth of OVCAR3 xenografts ([1]; time 7, individual animals): 169.802 and 183.034 and 268.576 and 188.758 and 168.18 and 112.682 and 213.401
- Tumor growth of OVCAR3 xenografts ([1]; time 9, individual animals): 250.578 and 145.319 and 296.396 and 174.266 and 208.875 and 111.675 and 222.442
- Tumor growth of OVCAR3 xenografts ([1]; time 11, individual animals): 150.312 and 146.391 and 223.166 and 200.774 and 206.854 and 146.012 and 157.334
- Tumor growth of OVCAR3 xenografts ([1]; time 14, individual animals): 213.268 and 123.935 and 200.751 and 155.809 and 196.515 and 140.875 and 141.404
- Tumor growth of OVCAR3 xenografts ([1]; time 16, individual animals): 237.66 and 135.959 and 229.1 and 226.618 and 235.663 and 103.266 and 203.735
- Tumor growth of OVCAR3 xenografts ([1]; time 18, individual animals): 251.017 and 162.673 and 318.873 and 214.059 and 306.209 and 174.974 and 210.077
- Tumor growth of OVCAR3 xenografts ([1]; time 21, individual animals): 247.655 and 170.92 and 321.104 and 222.893 and 230.514 and 99.1867 and 166.154
- Tumor growth of OVCAR3 xenografts ([1]; time 23, individual animals): 217.609 and 142.992 and 287.288 and 218.481 and 211.021 and 149.048 and 110.272
- Tumor growth of OVCAR3 xenografts ([1]; time 25, individual animals): 172.222 and 104.59 and 228.551 and 206.723 and 216.753 and 107.406 and 123.877
- Tumor growth of OVCAR3 xenografts ([1]; time 28, individual animals): 184.75 and 98.3676 and 117.318 and 112.167 and 170.273 and 123.013 and 138.241
- Tumor growth of OVCAR3 xenografts ([1]; time 31, individual animals): 217.819 and 125.965 and 185.385 and 170.168 and 195 and 193.032 and 178.082
- Tumor growth of OVCAR3 xenografts ([1]; time 35, individual animals): 357.498 and 160.976 and 228.46 and 273.584 and 249.247 and 117.028 and 138.719
- Tumor growth of HCC1569 xenografts ([2]; time 0, individual animals): 105.749 and 117.204 and 102.711 and 148.478 and 128.24 and 85.4122 and 124.681
- HCC1569 tumor volume (mm3) ([2]; time 0, individual mice): 105.749 mm3 and 117.204 mm3 and 102.711 mm3 and 148.478 mm3 and 128.24 mm3 and 85.4122 mm3 and 124.681 mm3
- Tumor growth of HCC1569 xenografts ([2]; time 3, individual animals): 151.536 and 159.659 and 162.777 and 151.443 and 177.63 and 154.669 and 192.079
- HCC1569 tumor volume (mm3) ([2]; time 3, individual mice): 151.536 mm3 and 159.659 mm3 and 162.777 mm3 and 151.443 mm3 and 177.63 mm3 and 154.669 mm3 and 192.079 mm3
- Tumor growth of HCC1569 xenografts ([2]; time 7, individual animals): 138.854 and 145.293 and 143.642 and 108.998 and 199.13 and 137.034 and 160.487
- HCC1569 tumor volume (mm3) ([2]; time 7, individual mice): 138.854 mm3 and 145.293 mm3 and 143.642 mm3 and 108.998 mm3 and 199.13 mm3 and 137.034 mm3 and 160.487 mm3
- Tumor growth of HCC1569 xenografts ([2]; time 9, individual animals): 174.796 and 137.503 and 143.242 and 176.878 and 226.134 and 163.467 and 188.183
- HCC1569 tumor volume (mm3) ([2]; time 9, individual mice): 174.796 mm3 and 137.503 mm3 and 143.242 mm3 and 176.878 mm3 and 226.134 mm3 and 163.467 mm3 and 188.183 mm3
- Tumor growth of HCC1569 xenografts ([2]; time 11, individual animals): 223.015 and 184.936 and 195 and 179.883 and 241.724 and 153.608 and 171.36
- HCC1569 tumor volume (mm3) ([2]; time 11, individual mice): 223.015 mm3 and 184.936 mm3 and 195 mm3 and 179.883 mm3 and 241.724 mm3 and 153.608 mm3 and 171.36 mm3
- Tumor growth of HCC1569 xenografts ([2]; time 14, individual animals): 204.003 and 261.558 and 183.38 and 118.879 and 239.252 and 185.171 and 204.752
- HCC1569 tumor volume (mm3) ([2]; time 14, individual mice): 204.003 mm3 and 261.558 mm3 and 183.38 mm3 and 118.879 mm3 and 239.252 mm3 and 185.171 mm3 and 204.752 mm3
- Tumor growth of HCC1569 xenografts ([2]; time 16, individual animals): 195.461 and 216.259 and 164.879 and 153.977 and 196.654 and 193.17 and 190.906
- HCC1569 tumor volume (mm3) ([2]; time 16, individual mice): 195.461 mm3 and 216.259 mm3 and 164.879 mm3 and 153.977 mm3 and 196.654 mm3 and 193.17 mm3 and 190.906 mm3
- Tumor growth of HCC1569 xenografts ([2]; time 18, individual animals): 221.924 and 212.425 and 129.02 and 208.213 and 166.677 and 229.196 and 227.014
- HCC1569 tumor volume (mm3) ([2]; time 18, individual mice): 221.924 mm3 and 212.425 mm3 and 129.02 mm3 and 208.213 mm3 and 166.677 mm3 and 229.196 mm3 and 227.014 mm3
- Tumor growth of HCC1569 xenografts ([2]; time 21, individual animals): 185.067 and 156.685 and 149.724 and 161.993 and 145.441 and 216.395 and 247.024
- HCC1569 tumor volume (mm3) ([2]; time 21, individual mice): 185.067 mm3 and 156.685 mm3 and 149.724 mm3 and 161.993 mm3 and 145.441 mm3 and 216.395 mm3 and 247.024 mm3
- Tumor growth of HCC1569 xenografts ([2]; time 23, individual animals): 177.467 and 131.768 and 165.163 and 189.467 and 130.853 and 205.401 and 303.013
- HCC1569 tumor volume (mm3) ([2]; time 23, individual mice): 177.467 mm3 and 131.768 mm3 and 165.163 mm3 and 189.467 mm3 and 130.853 mm3 and 205.401 mm3 and 303.013 mm3
- Change in body weight (%) HCC1569 ([3]; time 0): 0%
- Change in body weight (%) HCC1569 ([3]; time 3): 2.186% and 4.278% and -2.094% and 2.073% and 1.538% and -0.9709% and -1.493%
- Change in body weight (%) HCC1569 ([3]; time 7): 3.279% and 3.743% and 1.047% and 5.181% and 1.026% and 0% and 1.99%
- Change in body weight (%) HCC1569 ([3]; time 9): 0.5464% and 3.209% and 0.5236% and 3.109% and 2.5641% and 2.427% and 1.99%
- Change in body weight (%) HCC1569 ([3]; time 11): 3.279% and 2.6738% and 1.571% and 2.591% and 0.5128% and 1.456% and 3.483%
- Change in body weight (%) HCC1569 ([3]; time 14): 7.104% and 10.1604% and 2.6178% and 8.808% and 4.103% and 2.913% and 2.985%
- Change in body weight (%) HCC1569 ([3]; time 16): 9.29% and 6.417% and 2.6178% and 5.181% and 3.077% and 4.854% and 4.975%
- Change in body weight (%) HCC1569 ([3]; time 18): 8.197% and 8.556% and 3.141% and 6.218% and 3.59% and 6.796% and 0.995%
- Change in body weight (%) HCC1569 ([3]; time 21): 12.5683% and 10.6952% and 5.759% and 9.326% and 8.205% and 11.6505% and 10.4478%
- Change in body weight (%) HCC1569 ([3]; time 23): 13.1148% and 9.626% and 4.712% and 9.845% and 6.154% and 6.311% and 3.9801%
- Change in body weight (%) OVCAR3 ([3]; day 0): 0%
- Change in body weight (%) OVCAR3 ([3]; day 3): 1.389% and -3.111% and 1.796% and -4.018% and -0.4608% and -5.195% and 2.427%
- Change in body weight (%) OVCAR3 ([3]; day 7): 4.63% and 0.4444% and 0.5988% and -2.232% and -0.9217% and 0% and 3.8835%
- Change in body weight (%) OVCAR3 ([3]; day 9): 4.167% and -2.667% and 0% and -0.8929% and -3.226% and -2.1645% and 3.8835%
- Change in body weight (%) OVCAR3 ([3]; day 11): 0% (2×) and -3.556% and 1.796% and -1.786% and -3.687% and 7.767%
- Change in body weight (%) OVCAR3 ([3]; day 14): 2.778% and -1.333% and 0.5988% and -0.8929% and 0% and 0.8658% and 9.709%
- Change in body weight (%) OVCAR3 ([3]; day 16): 3.7037% and -2.667% and -0.5988% and -1.786% and -4.147% and 0.4329% and 7.282%
- Change in body weight (%) OVCAR3 ([3]; day 18): 4.63% and -2.222% and 0.5988% and -0.4464% and 1.843% and -1.7316% and 4.854%
- Change in body weight (%) OVCAR3 ([3]; day 21): 8.7963% and 1.778% and 1.796% and -0.4464% and 2.765% and 0% and 8.252%
